The test system of this assay is HL60 cell line. Briefly: Combination study, modulatory effect: IC50 of chemotherapy drug without and with cannabinoid-pair (72 h). Type of assay: cell-based. As to conditions: Homo sapiens, HL-60, 72 h, HL60, 72 h, read-out: IC50 for percentage cell viability. On the procedure:
FIG. 2. Sensitising chemotherapy action with low doses of cannabinoids. […] The effect of a low dose of CBD/THC or CBD/CBG on the activity of CYT and VIN was also assessed. IC50 values for percentage cell viability were determined by emax models.
Cytarabine (CYT), (Sigma) and vincristine (VIN), (Sigma) were reconstituted in PBS at a stock concentration of 10 mM, and kept at −20° C. for no more than four weeks.
The ability of cannabinoids to modify the efficacy CYT and VIN was studied by assessing and comparing the IC50 of the anti-leukaemia drugs in the absence and presence of the cannabinoids.
The cannabinoids tested were CBD+CBG and CBD+THC, and these were used at a single total sub-optimal concentration of 1 μM in CEM and 5 μM HL60.
Drugs were added (CYT and VIN over a range of concentrations) and cell number determined after 72 h.
The ability of a sub-effective concentration of cannabinoid to alter the efficacy of CYT or VIN was determined by comparing the IC50s of the chemotherapy agents in the absence or presence of the cannabinoid-pair.

Data on one molecule can be found in patent US12161607B2, “Combination of cannabinoids in the treatment of leukemia” (Jazz Pharmaceuticals Research UK Limited, priority 2017, dated 2024).

pIC50: −log10 of the molar value. Read-outs that look alike come from different tables or passages of the source.

For orientation: pIC50 means the negative decadic logarithm of the IC50, by convention in mol/L. `Nc1ccn([C@@H]2O[C@H](CO)[C@@H](O)[C@@H]2O)c(=O)n1` [cytarabine, Cytarabine]: the pIC50 by setting is: (CBD+CBG added (sub-optimal total 5 μM in HL60)) 6.82; (CBD+THC added (sub-optimal total 5 μM in HL60)) 8.10; (chemotherapy drug alone) 7.00.
